Assay results from patent publication US8129359B2, “Composition and method for treating post-surgical pain” (Ethicon, Inc., priority 2004, dated 2012).
Entries after “also recorded” stand apart in the source; their conditions may differ. Where a name gives a salt, the structure may show the parent alone.

Columns and labels:
[1] = test system: Male Sprague Dawley rats; assay: Brennan surgical pain model (mechanical allodynia by von Frey filaments, mechanical hyperalgesia by pin-prick test); format: in vivo, rat; conditions: for Efficacy for reduction of post-surgical pain at a surgical wound site: in the oxidized regenerated cellulose-based system, MPE greater than 30 percent considered efficacious
Experimental: In order to evaluate the analgesic efficacy of the composition containing oxidized regenerated cellulose particles dry blended with an NSAID powder (diclofenac sodium), the Brennan surgical pain model was used (Characterization of a rat model of incisional pain, Brennan, T. J., et al., Pain: 64 (1996); 493-501). The model was performed as follows. Male Sprague Dawley rats weighing 250-300 grams were used throughout the experiment. Prior to surgery, each animal was habituated to the testing environment and a baseline response to Semmes-Weinstein (von Frey) filaments was established. Animals were anesthetized using a fresh mixture of xylazine and ketamine containing 100 mg ketamine/ml and 20 mg xylazine/ml. Each animal was injected intramuscularly with 1 ml/kg to achieve surgical anesthesia. The left hind paw was aseptically prepared and a 1 cm incision through the skin and fascia was made on the plantar surface of the hind paw, extending from the ankle distally. The middle digital tendon was isolated and crushed using mosquito hemostats for 20 seconds. Following surgery animals were tested for mechanical sensitivity at 4, 24, 48, 72 and 96 hours following surgery.
Ten rats were evaluated in each of the following groups:
Group 1. Control group: all animals were given intraperitoneal (IP) injections of saline (1 ml/kg) 1 hour before testing for mechanical allodynia and hyperalgesia.
This equates to a total of 1 mg of diclofenac sodium or approximately 4 mg/kg for a 250 g animal.
Group 3: Immediately post-tendon crush, a single dose (20 mg of micronized oxidized regenerated cellulose with an approximate particle size of 20-25 microns blended with […]) was mixed with 100 microliters of a sterile saline solution. The composition was then applied to the site of the crushed tendon.
This equates to a total of 0.5 mg of diclofenac sodium or approximately 2 mg/kg for a 250 g animal. […]
This equates to a total of 2.0 mg of diclofenac sodium or approximately 8 mg/kg for a 250 g animal.
The pin-prick test was used to assess mechanical hyperalgesia. Briefly, a blunted safety pin was used to gently tent the plantar skin of each hind paw without breaking the skin. A stopwatch was used to measure the withdrawal time following this stimulus. Increased withdrawal time (in seconds) was interpreted as mechanical hyperalgesia.
Mechanical sensitivity or mechanical allodynia from each time point was normalized against the negative control group and against each individual animal's pre-surgical mechanical sensitivity. Mechanical sensitivity was assessed using a procedure described by Chaplan et al. (J. Neurosci. Methods 1994, 53: 55-63). A series of von Frey filaments of varying rigidity strength (typically eight filaments in the series) were applied to the plantar surface of the hind paw ipsilateral to the ligations with just enough force to bend the filament. […] A positive allodynic response consists of lifting the affected paw followed immediately by licking or shaking of the paw. The order and frequency with which the filaments were applied was determined using the Dixon up-down method. Testing was initiated with the middle filament of the series with subsequent filaments being applied in consecutive fashion, ascending or descending, depending on whether a negative or positive response, respectively, was obtained with the initial filament.
Results are expressed as percent of Maximal Potential Efficacy (% MPE).

[2] = Pharmacokinetic evaluation of diclofenac release in a rat model (plasma and incision-site tissue, LC/MS/MS); format: in vivo
Experimental: Pharmacokinetic studies in a rat model were conducted to determine the rate of diclofenac release from the composition. Male Sprague Dawley rats (four rats per time point per group) were anesthetized with isoflurane and subjected to a single surgical incision on the plantar surface of the left hind paw. The medial tendon was exposed by blunt dissection and subjected to a 20 second clamp using a mosquito hemostat.
In Group 1 the incision was sutured closed following manipulation of the tendon. The rats were administered an intraperitoneal injection of 5 mg/kg Diclofenac (as sodium salt, saline vehicle) 4 hours and 23 hours post-surgery. Blood and tissue samples were harvested at 0.25, 1, 4 and 6 hours after the second dose.
In Group 2, oxidized regenerated cellulose (Surgicel® Fibrillar absorbable hemostat) was implanted between the tendon and the metatarsals and 0.5 mg of Diclofenac (as sodium salt, saline vehicle) was instilled directly into the wound site and the incision was sutured closed. Blood samples were taken at 0.25,1, 4, 6, 24 and 48 hours post surgery.
Blood was harvested into K-EDTA tubes via cardiac puncture while the rats were anesthetized with isoflurane. Rats were terminated immediately after the blood draw by CO2 inhalation, and the skin, muscle fascia and tendon of the left hind paw incision site were harvested. The contralateral tissue of the right hind paw was harvested and retained separately.
Blood samples were centrifuged to yield plasma, the resulting plasma as well as tissue samples were sent to Covance, Madison Wis. for LC/MS/MS analysis of diclofenac. Briefly, the analytical method involves extracting ˜50 mg of tissue or 50 uL of plasma w/acetonitrile; the residue of the ACN extract is analyzed by tandem mass spectroscopy. The dynamic ranges of the plasma and tissue assays were 25 to 12,500 ng/mL and 25 to 12,500 ng/g, respectively.

[3] = Surgicel Fibrillar absorbable hemostat 6 × 6 mm, solution, 0.5 mg
[4] = Micronized (20–25 um) oxidized regenerated cellulose, dry/powder, 1 mg
[5] = Surgicel Fibrillar absorbable hemostat 6 × 6 mm, solution, 1.0 mg

COc1cccc(C2(O)CCCCC2CN(C)C)c1 (stereo not drawn) [Tramadol Sol'n, tramadol]
Efficacy (duration of analgesic effect) ([1]; Surgicel Fibrillar absorbable hemostat 6 × 6 mm, solution, 2 mg): 24 h

CC(C(=O)O)c1cccc(C(=O)c2ccccc2)c1 (stereo not drawn) [Ketoprofen Sol'n, ketoprofen]
Efficacy (duration of analgesic effect) [1, 3]: Ineffective | Efficacy for reduction of post-surgical pain at a surgical wound site [1]: neither indomethacin nor ketoprofen is efficacious

O=C(O)Cc1ccccc1Nc1c(Cl)cccc1Cl [DCF Free acid, 2-((2,6-ichlorophenyl)amino)benzeneacetic acid]
Diclofenac concentrations at the surgical site ([2]; after local administration of composition containing oxidized regenerated cellulose and diclofenac, FIG. 3A): remaining relatively high; also recorded: remained relatively high | Tissue concentrations of diclofenac ([2]; intraperitoneal injection of diclofenac solution, FIG. 3A): rapid decline | Plasma concentrations of diclofenac, local administration compared with systemic administration ([2]; local administration from the composition, FIG. 3B): much lower | Efficacy for reduction of post-surgical pain at a surgical wound site [1]: surprisingly efficacious

O=C(O)Cc1ccccc1Nc1c(Cl)cccc1Cl [DCF Sol'n, 2-[(2,6-dichlorophenyl)amino]-Benzeneacetic acid, monosodium salt]
Period of analgesia ([1]; 6 mm×6 mm Surgicel Fibrillar oxidized regenerated cellulose plus diclofenac sodium and saline): 48 h | Benefit at 72 hours ([1]; 6 mm×6 mm Surgicel Fibrillar oxidized regenerated cellulose plus diclofenac sodium and saline, 72 hours): smaller benefit | Efficacy (duration of analgesic effect) ([1]; Interceed absorbable adhesion barrier 6 × 6 mm, solution, 0.5 mg): 48 h | Efficacy (duration of analgesic effect) ([1]; Intraplantar injection, solution, 0.5 mg): 4 h | Efficacy (duration of analgesic effect) [1, 4]: 72 h | Efficacy (duration of analgesic effect) ([1]; Micronized (20–25 um) oxidized regenerated cellulose, solution, 1.0 mg, applied at crushed tendon): 72 h | Significant increase in analgesic effect, through ([1]; Micronized oxidized regenerated cellulose (20-25 micron) mixed with diclofenac sodium and saline): 72 h | Effect at 96 hours ([1]; Micronized oxidized regenerated cellulose (20-25 micron) mixed with diclofenac sodium and saline, 96 hours): some effect | Efficacy (duration of analgesic effect) ([1]; Repeated IPL injec., solution, 0.5 mg): 4 h | Efficacy (duration of analgesic effect) [1, 3]: 48 h | Efficacy (duration of analgesic effect) [1, 5]: 48 h

COc1ccc2c(c1)c(CC(=O)O)c(C)n2C(=O)c1ccc(Cl)cc1 [Inodmethacin Sol'n, indomethacin]
Efficacy (duration of analgesic effect) [1, 3]: Ineffective | Efficacy for reduction of post-surgical pain at a surgical wound site [1]: neither indomethacin nor ketoprofen is efficacious

Cc1cccc(C)c1NC(=O)C1CCCCN1C (stereo not drawn) [Mepiv Sol'n, mepivacaine hydrochloride]
Efficacy (duration of analgesic effect) ([1]; Intraplantar injection, solution, 1.0 mg): 4 h | Efficacy (duration of analgesic effect) [1, 4]: Ineffec- | Efficacy (duration of analgesic effect) ([1]; Repeated IPL injec., solution, 1.0 mg): 72+ Hrs | Efficacy (duration of analgesic effect) [1, 5]: 4 Hrs effect
